From patent US7160888B2, “[1,8]naphthyridin-2-ones and related compounds for the treatment of schizophrenia” (Warner Lambert Company LLC, priority 2003, dated 2007)

These molecules were tested against D2 receptor (Homo sapiens, UniProt P14416) (assay: [3H]Thymidine uptake assay for D2 intrinsic activity). Conditions: Table 1; test compound 1 μM; 1 μM Quinpirole = 100% intrinsic activity.
Type: cell-based

Chain of D2 receptor (P14416 whole entry): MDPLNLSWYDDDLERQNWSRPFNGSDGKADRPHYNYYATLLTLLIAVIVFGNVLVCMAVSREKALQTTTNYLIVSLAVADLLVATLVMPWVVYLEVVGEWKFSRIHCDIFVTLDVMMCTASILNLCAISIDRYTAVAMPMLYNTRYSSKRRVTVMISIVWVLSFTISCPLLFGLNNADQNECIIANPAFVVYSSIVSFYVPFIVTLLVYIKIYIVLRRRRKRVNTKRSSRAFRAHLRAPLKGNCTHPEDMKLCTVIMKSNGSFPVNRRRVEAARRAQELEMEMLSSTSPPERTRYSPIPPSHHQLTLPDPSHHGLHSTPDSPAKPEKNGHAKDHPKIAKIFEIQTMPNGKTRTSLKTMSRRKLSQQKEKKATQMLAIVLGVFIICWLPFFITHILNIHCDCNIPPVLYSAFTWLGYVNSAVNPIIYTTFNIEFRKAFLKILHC

Compound	Emax at 1 µM [%]
CC(C)COc1ccccc1N1CCN(CCCCOc2ccc3c(n2)NC(=O)CC3(C)C)CC1 [Example D24, 7-{4-[4-(2-Isobutoxy-phenyl)-piperazin-1-yl]-butoxy}-4,4-dimethyl-3,4-dihydro-1H-[1,8]naphthyridin-2-one]	32
CC(C)Oc1ccccc1N1CCN(CCCCOc2ccc3c(n2)NC(=O)CC3(C)C)CC1 [Example D25, 7-{4-[4-(2-Isopropoxy-phenyl)-piperazin-1-yl]-butoxy}-4,4-dimethyl-3,4-dihydro-1H-[1,8]naphthyridin-2-one]	31
O=C1CCc2cc(F)c(OCCCCN3CCN(c4cccc(Cl)c4Cl)CC3)nc2N1 [Example E3, 7-{4-[4-(2,3-Dichloro-phenyl)-piperazin-1-yl]-butoxy}-6-fluoro-3,4-dihydro-1H-[1,8]naphthyridin-2-one]	31
O=C1CCc2cc(F)c(OCCCCN3CCN(c4cccc5ccccc45)CC3)nc2N1 [Example E4, 6-Fluoro-7-[4-(4-naphthalen-1-yl-piperazin-1-yl)-butoxy]-3,4-dihydro-1H-[1,8]naphthyridin-2-one]	38
O=C1CCc2cc(F)c(OCCCCN3CCN(c4cccc5c4CCC5)CC3)nc2N1 [Example E5, 6-Fluoro-7-[4-(4-indan-4-yl-piperazin-1-yl)-butoxy]-3,4-dihydro-1H-[1,8]naphthyridin-2-one]	21
O=C1CCc2cc(Cl)c(OCCCCN3CCN(c4cccc5ccccc45)CC3)nc2N1 [Example E6, 6-Chloro-7-[4-(4-naphthalen-1-yl-piperazin-1-yl)-butoxy]-3,4-dihydro-1H-[1,8]naphthyridin-2-one]	32
O=C1CCc2cc(Br)c(OCCCCN3CCN(c4cccc(Cl)c4Cl)CC3)nc2N1 [Example E7, 6-Bromo-7-{4-[4-(2,3-dichloro-phenyl)-piperazin-1-yl]-butoxy}-3,4-dihydro-1H-[1,8]naphthyridin-2-one]	19
O=C1CCc2cc(Br)c(OCCCCN3CCN(c4cccc5ccccc45)CC3)nc2N1 [Example E8, 6-Bromo-7-[4-(4-naphthalen-1-yl-piperazin-1-yl)-butoxy]-3,4-dihydro-1H-[1,8]naphthyridin-2-one]	26
Cc1cc(OCCCCN2CCN(c3cccc(Cl)c3Cl)CC2)nc2c1CCC(=O)N2 [Example E9, 7-{4-[4-(2,3-Dichloro-phenyl)-piperazin-1-yl]-butoxy}-5-methyl-3,4-dihydro-1H-[1,8]naphthyridin-2-one]	34
Cc1cc(OCCCCN2CCN(c3cccc4ccccc34)CC2)nc2c1CCC(=O)N2 [Example E10, 5-Methyl-7-[4-(4-naphthalen-1-yl-piperazin-1-yl)-butoxy]-3,4-dihydro-1H-[1,8]naphthyridin-2-one]	31
Cc1cc(OCCCCN2CCN(c3cccc4c3CCCC4)CC2)nc2c1CCC(=O)N2 [Example E11, 5-Methyl-7-{4-[4-(5,6,7,8-tetrahydro-naphthalen-1-yl)-piperazin-1-yl]-butoxy}-3,4-dihydro-1H-[1,8]naphthyridin-2-one]	19
Cc1cc(OCCCCN2CCN(c3cccc4c3CCC4)CC2)nc2c1CCC(=O)N2 [Example E12, 7-[4-(4-Indan-4-yl-piperazin-1-yl)-butoxy]-5-methyl-3,4-dihydro-1H-[1,8]naphthyridin-2-one]	39
O=C1CCc2c(C(F)(F)F)cc(OCCCCN3CCN(c4cccc5c4CCC5)CC3)nc2N1 [Example E13, 7-[4-(4-Indan-4-yl-piperazin-1-yl)-butoxy]-5-trifluoromethyl-3,4-dihydro-1H-[1,8]naphthyridin-2-one]	11
O=C1CCc2c(C(F)(F)F)cc(OCCCCN3CCN(c4cccc5ccccc45)CC3)nc2N1 [Example E14, 7-[4-(4-Naphthalen-1-yl-piperazin-1-yl)-butoxy]-5-trifluoromethyl-3,4-dihydro-1H-[1,8]naphthyridin-2-one]	36
O=C1CCc2c(C(F)(F)F)cc(OCCCCN3CCN(c4cccc5c4CCCC5)CC3)nc2N1 [Example E15, 7-{4-[4-(5,6,7,8-Tetrahydro-naphthalen-1-yl)-piperazin-1-yl]-butoxy}-5-trifluoromethyl-3,4-dihydro-1H-[1,8]naphthyridin-2-one]	20
O=C1NCc2ccc(OCCCCN3CCN(c4cccc5c4CCC5)CC3)nc2N1 [Example F3, 7-[4-(4-Indan-4-yl-piperazin-1-yl)-butoxy]-3,4-dihydro-1H-pyrido[2,3-d]pyrimidin-2-one]	15
O=C1NCc2ccc(OCCCCN3CCN(c4cccc5c4CCCC5)CC3)nc2N1 [Example F4, 7-{4-[4-(5,6,7,8-Tetrahydro-naphthalen-1-yl)-piperazin-1-yl]-butoxy}-3,4-dihydro-1H-pyrido[2,3-d]pyrimidin-2-one]	23
O=C1NCc2ccc(OCCCCN3CCN(c4cccc5ccc(F)cc45)CC3)nc2N1 [Example F5, 7-{4-[4-(7-Fluoro-naphthalen-1-yl)-piperazin-1-yl]-butoxy}-3,4-dihydro-1H-pyrido[2,3-d]pyrimidin-2-one]	32
N#Cc1ccc2cccc(N3CCN(CCCCOc4ccc5c(n4)NC(=O)NC5)CC3)c2c1 [Example F6, 8-{4-[4-(2-Oxo-1,2,3,4-tetrahydro-pyrido[2,3-d]pyrimidin-7-yloxy)-butyl]-piperazin-1-yl}-naphthalene-2-carbonitrile]	37
CN1Cc2ccc(OCCCCN3CCN(c4cccc(Cl)c4Cl)CC3)nc2NC1=O [Example F7, 7-{4-[4-(2,3-Dichloro-phenyl)-piperazin-1-yl]-butoxy}-3-methyl-3,4-dihydro-1H-pyrido[2,3-d]pyrimidin-2-one]	11
CN1Cc2ccc(OCCCCN3CCN(c4cccc5ccccc45)CC3)nc2NC1=O [Example F8, 3-Methyl-7-[4-(4-naphthalen-1-yl-piperazin-1-yl)-butoxy]-3,4-dihydro-1H-pyrido[2,3-d]pyrimidin-2-one]	15
CC1(C)OC(=O)Nc2nc(CCCCCN3CCN(c4cccc(Cl)c4Cl)CC3)ccc21 [Example F9, 7-{5-[4-(2,3-Dichloro-phenyl)-piperazin-1-yl]-pentyl}-4,4-dimethyl-1,4-dihydro-pyrido[2,3-d][1,3]oxazin-2-one]	11
O=C1COc2ccc(CCCCCN3CCN(c4cccc(Cl)c4Cl)CC3)nc2N1 [Example G1, 6-{5-[4-(2,3-Dichloro-phenyl)-piperazin-1-yl]-pentyl}-4H-pyrido[3,2-b][1,4]oxazin-3-one]	27
O=C1COc2ccc(CCCCCN3CCN(c4cccc5c4CCCC5)CC3)nc2N1 [Example G2, 6-{5-[4-(5,6,7,8-Tetrahydro-naphthalen-1-yl)-piperazin-1-yl]-pentyl}-4H-pyrido[3,2-b][1,4]oxazin-3-one]	6
O=C1COc2ccc(OCCCCN3CCN(c4cccc(Cl)c4Cl)CC3)nc2N1 [Example G3, 6-{4-[4-(2,3-Dichloro-phenyl)-piperazin-1-yl]-butoxy}-4H-pyrido[3,2-b][1,4]oxazin-3-one]	25

Same assay, conditions: Table 2; test compound 1 μM; 1 μM Quinpirole = 100% intrinsic activity

Compound	Emax at 1 µM [%]
O=c1ncc2ccc(OCCCCN3CCN(c4cccc5c4OCCC5)CC3)nc2[nH]1 [Example E1′, 7-[4-(4-Chroman-8-yl-piperazin-1-yl)-butoxy]-1H-pyrido[2,3-d]pyrimidin-2-one]	12
O=C1NCc2ccc(OCCCCN3CCN(c4cccc5c4OCCC5)CC3)nc2N1 [Example E2′, 7-[4-(4-Chroman-8-yl-piperazin-1-yl)-butoxy]-3,4-dihydro-1H-pyrido[2,3-d]pyrimidin-2-one]	9
O=C1NCc2ccc(OCCCCN3CCN(c4cccc5c4OCC5)CC3)nc2N1 [Example E3′, 7-{4-[4-(2,3-Dihydro-benzofuran-7-yl)-piperazin-1-yl]-butoxy}-3,4-dihydro-1H-pyrido[2,3-d]pyrimidin-2-one]	8
O=C1NCc2ccc(OCCCCN3CCN(c4cccc5c4OCCCO5)CC3)nc2N1 [Example E4′, 7-{4-[4-(3,4-Dihydro-2H-benzo[b][1,4]dioxepin-6-yl)-piperazin-1-yl]-butoxy}-3,4-dihydro-1H-pyrido[2,3-d]pyrimidin-2-one]	26
O=c1ccc2cnc(OCCCCN3CCN(c4cccc5c4OCCO5)CC3)nc2[nH]1 [Example G1′, 2-{4-[4-(2,3-Dihydro-benzo[1,4]dioxin-5-yl)-piperazin-1-yl]-butoxy}-8H-pyrido[2,3-d]pyrimidin-7-one]	20
O=c1ccc2cnc(OCCCCN3CCN(c4cccc5c4OCCC5)CC3)nc2[nH]1 [Example G2′, 2-[4-(4-Chroman-8-yl-piperazin-1-yl)-butoxy]-8H-pyrido[2,3-d]pyrimidin-7-one]	21
O=c1ccc2cnc(OCCCCN3CCN(c4cccc5cccnc45)CC3)nc2[nH]1 [Example G3′, 2-[4-(4-Quinolin-8-yl-piperazin-1-yl)-butoxy]-8H-pyrido[2,3-d]pyrimidin-7-one]	28
O=c1ccc2cnc(OCCCCN3CCN(c4cccc5c4OCC5)CC3)nc2[nH]1 [Example G4′, 2-{4-[4-(2,3-Dihydro-benzofuran-7-yl)-piperazin-1-yl]-butoxy}-8H-pyrido[2,3-d]pyrimidin-7-one]	13
O=c1ccc2cnc(OCCCCN3CCN(c4cccc5c4OCCCO5)CC3)nc2[nH]1 [Example G5′, 2-{4-[4-(3,4-Dihydro-2H-benzo[b][1,4]dioxepin-6-yl)-piperazin-1-yl]-butoxy}-8H-pyrido[2,3-d]pyrimidin-7-one]	7
CC1(C)CCc2cccc(N3CCN(CCCCOc4ncc5ccc(=O)[nH]c5n4)CC3)c2O1 [Example G6′, 2-{4-[4-(2,2-Dimethyl-chroman-8-yl)-piperazin-1-yl]-butoxy}-8H-pyrido[2,3-d]pyrimidin-7-one]	17
O=c1ccc2cnc(OCCCCN3CCN(c4cccc5c4OC(F)(F)O5)CC3)nc2[nH]1 [Example G7′, 2-{4-[4-(2,2-Difluoro-benzo[1,3]dioxol-4-yl)-piperazin-1-yl]-butoxy}-8H-pyrido[2,3-d]pyrimidin-7-one]	38
